Laboratory results published in publication PMC10914731, “Homo-BacPROTAC-induced degradation of ClpC1 as a strategy against drug-resistant mycobacteria” (Nature Communications, 2024).
Values after ≈ are worked out from the molar mass of the structure shown. Values joined by “and” are separate entries in the source; they are usually repeats but may differ in a detail not shown here. Equal entries are not always repeated. Where two headings read alike, the source gives them in different places. Where a SMILES comes first, the peptide text is derived from it. [ ]: non-standard residue; d: D form. NMeTrp(1-Me) = CN[C@@H](Cc1cn(C)c2ccccc12)C(=O)O; NMeLeu(5-OH,4R) = CN[C@@H](C[C@@H](C)CO)C(=O)O; Phe(βR-OMe) = CO[C@H](c1ccccc1)[C@H](N)C(=O)O; NMeL = CN[C@@H](CC(C)C)C(=O)O; Pra = C#CC[C@H](N)C(=O)O

How the values were obtained:
[1] = tested on: M. tuberculosis H37Rv (ATCC 27294); assay: microbe, parasite or virus in culture; assay type: cell-based
[2] = assay type: in vitro ADME, Rat; settings: rat, pH 7.4
[3] = molecular target: ClpC1 NTD protein (M. tuberculosis) (Mycobacterium tuberculosis, UniProt P9WPC9); assay: biochemical; assay type: binding
Sequence of ClpC1 NTD protein (M. tuberculosis) (P9WPC9 1-156, looked up, natural form): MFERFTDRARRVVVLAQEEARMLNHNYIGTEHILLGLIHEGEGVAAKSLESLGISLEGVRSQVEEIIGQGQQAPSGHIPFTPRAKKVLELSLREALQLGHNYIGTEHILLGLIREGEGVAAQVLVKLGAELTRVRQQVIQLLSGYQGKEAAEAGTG

[4] = Microsomal stability, human; assay type: in vitro ADME; settings: for Microsomal Stability Human: clearance in microsomes
Outline: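 Metabolic depletion in liver microsomes (0.5 mg/ml, 1 mM NADPH, 37 °C) starting from 1 µmol/l test compound, sampled at multiple times with acetonitrile quench. LC-MS/MS quantitation; half-life converted to %Qh.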

Msm 607 = assay: microbe, parasite or virus in culture; assay type: cell-based
Caco-2 monolayers = assay: in vitro; settings: human, Caco-2
Outline: (§1)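 Values are bidirectional Caco-2 apparent permeabilities, P(A−B) and P(B−A), given in 10^-6 cm s-1. The efflux ratio divides P(B−A) by P(A−B), and intrinsic permeability averages the two directions.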

in vitro = settings: human; for efflux ratio: Caco-2
Outline: as §1

[5] = assay type: in vitro ADME, Mice; settings: for Microsomal Stability Mice: clearance in microsomes
Protocol: (§2) The kinetics of compound degradation in liver microsomes is assessed in an assay with 1 µmol/l of compound and 0.5 mg/ml liver microsomes in a medium of 100 mM Tris-HCl pH 7.5, 6.5 mM MgCl2 and 1 mM NADPH at 37 °C. The reaction is stopped at multiple time points by adding acetonitrile. After centrifugation, the compound concentration is measured in the supernatants by high-performance liquid chromatography (HPLC) tandem mass spectrometry (MS/MS). The results are fitted to a first-order decay and the half-lives are converted to clearance (stated as % of the liver blood flow (%Qh)) using the well-stirred liver model.

[6] = Hepatocyte stability, mice; assay type: in vitro ADME; settings: mouse, pH 7.4
Outline: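 Clearance, expressed as % of liver blood flow (% Qh), derived from parent-compound half-life by the well-stirred model, with HPLC-MS/MS quantitation after acetonitrile quench. Test compound at 1 µM final added to mouse hepatocyte suspension in 50% serum after 15–30 min acclimation at 37 °C; six samples over up to 6 h.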

Msm 700084 = assay: microbe, parasite or virus in culture; assay type: cell-based
[7] = assay type: in vitro ADME, Human; settings: human, pH 7.4
[8] = assay type: in vitro ADME, Rat; settings: for Microsomal Stability Rat: clearance in microsomes
Protocol: as §2

[9] = Mycobacterium tuberculosis, M. tuberculosis H37Rv strain, read-out: MIC Mtb H37Rv Mean ± SD
[10] = Mycobacterium tuberculosis, Mtb H37Rv (Supplementary Table 2), read-out: MIC Mtb
[11] = Mycobacterium tuberculosis, individual measurements (source data), read-out: Mtb MIC
[12] = Mycobacterium tuberculosis, single determinations, read-out: Mtb MIC
[13] = SPR, individual measurements (source data), read-out: KD ClpC1-NTD
[14] = SPR, read-out: ClpC1-NTD KD Mean ± SD
[15] = Mycolicibacterium smegmatis, 607, read-out: MIC Msm 607
[16] = Mycolicibacterium smegmatis, 607, read-out: Msm 607 MIC, single determinations
[17] = Caco-2, Caco-2 permeability P (A-B)
[18] = Caco-2, Caco-2 permeability P (B-A)
[19] = Mycolicibacterium smegmatis, 700084, single determinations, read-out: Msm 700084 MIC
[20] = Mycolicibacterium smegmatis, 700084, read-out: MIC Msm 700084

**Q.** What does the source list for C#CC[C@@H]1NC(=O)[C@H](CC(C)C)N(C)C(=O)[C@H](C(C)C)NC(=O)[C@H]([C@H](OC)c2ccccc2)NC(=O)[C@H](C)NC(=O)[C@H](C[C@@H](C)CO)N(C)C(=O)[C@H](Cc2cn(C)c3ccccc23)N(C)C1=O [Compound 20] (cyclo(A[Phe(βR-OMe)]V[NMeL][Pra][NMeTrp(1-Me)][NMeLeu(5-OH,4R)]))?
**A.** MIC [1, 9]: 50 µM (≈ 46.4 µg/mL); MIC [1, 10]: 50 µM (≈ 46.4 µg/mL); MIC [1, 11]: 50 µM (≈ 46.4 µg/mL); MIC [1, 12]: 50 µM (≈ 46.4 µg/mL); MIC ([1]; individual measurements (source data), read-out: Mtb MIC): 50.000 µM (≈ 46.4 µg/mL); Hepatocyte Rat [2]: 63 %Qh; Hepatocyte Stability Rat QH [2]: 63.002%; Kd [3, 13]: 14.1 nM and 13.7 nM; Kd [3, 14]: 13.9 ± 0.3 nM; Microsomal Stability Human QH [4]: >88.400%; Microsomal Stability Human [4]: > 88 %Qh; MIC (Msm 607; [15]): 25 µM (≈ 23.2 µg/mL); MIC (Msm 607; [16]): 25 µM (≈ 23.2 µg/mL); Caco-2 Int. Perm (Caco-2 monolayers): 15.7; Influence of N-methylation on permeability (Caco-2 monolayers): >11.8; Permeability Correlation P (A-B) (Caco-2 monolayers): > 28; efflux ratio (in vitro): 11.8; Papp A→B (in vitro; Caco-2, CACO permeability PEAB): 2 ×10⁻⁶ cm/s; Papp B→A (in vitro; Caco-2, CACO permeability PEBA): 36 ×10⁻⁶ cm/s; Papp A→B (in vitro; [17]): 2.8 ×10⁻⁶ cm/s; Papp B→A (in vitro; [18]): 28.5 ×10⁻⁶ cm/s; Microsomal Stability Mouse QH [5]: >88.400%; Microsomal Stability Mice [5]: > 88 %Qh; Hepatocyte Mice [6]: 59 %Qh; Hepatocyte Stability Mouse QH [6]: 58.928%; MIC (Msm 700084; [19]): > 50 µM; MIC (Msm 700084; [20]): > 50 µM; Hepatocyte Human [7]: 34 %Qh; Hepatocyte Stability Human QH [7]: 34.158%; Microsomal Stability Rat QH [8]: >87.900%; Microsomal Stability Rat [8]: > 88 %Qh

**Q.** Which MIC [1, 9] does the source give for CCCCCn1cc(C[C@@H]2NC(=O)[C@H](CC(C)C)N(C)C(=O)[C@H](C(C)C)NC(=O)[C@H]([C@H](OC)c3ccccc3)NC(=O)[C@H](C)NC(=O)[C@H](C[C@@H](C)CO)N(C)C(=O)[C@H](Cc3cn(C)c4ccccc34)N(C)C2=O)nn1 [Compound 25] here?
**A.** 6.3 µM (≈ 6.55 µg/mL)

**Q.** And the MIC [1, 10]?
**A.** 6.3 µM (≈ 6.55 µg/mL)

**Q.** And the MIC [1, 11]?
**A.** 6.25 µM (≈ 6.5 µg/mL)

**Q.** And the MIC [1, 12]?
**A.** 6.25 µM (≈ 6.5 µg/mL)

**Q.** And the “Hepatocyte Rat” value [2]?
**A.** 16 %Qh

**Q.** What about the koff ([3]; SPR dissociation rate constant, read-out: koff ClpC1-NTD Mean ± SD) of the same compound?
**A.** 0.1 s⁻¹

**Q.** What about the Kd [3, 13] of the same compound?
**A.** 26.2 nM and 26 nM

**Q.** What about the “koff ClpC1-NTD” value ([3]; SPR, single independent measurements) of the same compound?
**A.** 1E-1 1E-1 1/s

**Q.** And the koff ([3]; SPR, single independent measurements, read-out: koff ClpC1-NTD)?
**A.** 0.1 s⁻¹

**Q.** And the Kd [3, 14]?
**A.** 26.1 ± 0.1 nM

**Q.** What about the “Microsomal Stability Human QH” value [4] of the same compound?
**A.** >88.4 >88.4%

**Q.** And the “Microsomal Stability Human” value [4]?
**A.** > 88 %Qh

**Q.** What about the MIC (Msm 607; [15]) of the same compound?
**A.** 12.5 µM (≈ 13 µg/mL)

**Q.** What about the MIC (Msm 607; [16]) of the same compound?
**A.** 12.5 µM (≈ 13 µg/mL)

**Q.** What about the “Caco-2 Int. Perm” value (Caco-2 monolayers) of the same compound?
**A.** 11.4

**Q.** And the “Permeability Correlation P (A-B)” value (Caco-2 monolayers)?
**A.** > 3

**Q.** And the “Permeability Correlation Ratio” value (Caco-2 monolayers)?
**A.** > 1.5

**Q.** What about the efflux ratio (in vitro) of the same compound?
**A.** 25.1

**Q.** And the Papp A→B (in vitro; Caco-2, CACO permeability PEAB)?
**A.** 0.87 ×10⁻⁶ cm/s

**Q.** And the Papp A→B (in vitro; [17])?
**A.** 0.9 ×10⁻⁶ cm/s

**Q.** And the Papp B→A (in vitro; [18])?
**A.** 22 ×10⁻⁶ cm/s

**Q.** What about the “Microsomal Stability Mouse QH” value [5] of the same compound?
**A.** 79.2% and 83.9%

**Q.** What about the “Microsomal Stability Mice” value [5] of the same compound?
**A.** 82 %Qh

**Q.** What about the “Hepatocyte Mice” value [6] of the same compound?
**A.** 21 %Qh

**Q.** And the “Hepatocyte Stability Mouse QH” value [6]?
**A.** 27.872%

**Q.** And the MIC (Msm 700084; [19])?
**A.** 12.5 µM (≈ 13 µg/mL)

**Q.** What about the MIC (Msm 700084; [20]) of the same compound?
**A.** 12.5 µM (≈ 13 µg/mL)

**Q.** And the “Hepatocyte Human” value [7]?
**A.** 30 %Qh

**Q.** What about the “Microsomal Stability Rat QH” value [8] of the same compound?
**A.** 62% and 62.6%

**Q.** And the “Microsomal Stability Rat” value [8]?
**A.** 62 %Qh
